# According to patent US20220265685A1, “METHODS AND COMPOSITIONS FOR IMPROVING COGNITIVE FUNCTION” (priority 2010, published 2022):
# Like-named read-outs stand apart in the source and are kept apart here.
# Columns and labels:
# [1] = cited from earlier work
# aMCI subjects [2] = experiment: neuropsychological assessment (common cognitive tests); format: in vivo, human; conditions: levetiracetam 125 mg twice a day for two weeks
# Experimental: (§1) A within-subjects trial of 8 weeks duration, involving 17 amnestic MCI (aMCI) subjects and 17 age-matched controls with a low dose treatment of levetiracetam is conducted. During the course of the study, each aMCI subject receives both drug and placebo treatments separately in two periods of two weeks each, with the order of treatments among different aMCI subjects counterbalanced (see FIG. 3). Age-matched control subjects treated with placebo serve as a further control. Cognitive testing and fMRI imaging data are obtained from the subjects after each two week period of drug/placebo treatment.
# All participants undergo neuropsychological evaluation at the time of assessment for treatment efficacy (Visits 1 and 2), as well as at the Baseline Visit.
# The evaluation occurs outside of the scanner and includes the Buschke Selective Reminding Test (Buschke and Fuld, 1974) and the Verbal Paired Associates subtest, the Logical Memory subtest, the Visual Reproduction subtest of the Wechsler Memory Scale-Revised (WMS-R) (Wechsler, 1997), and the Benton Visual Retention Test, as these tasks are particularly sensitive to medial temporal lobe function and early memory problems (Marquis et al., 2002 and Masur et al., 1994). Additionally, subjects are asked to complete tests of more general cognitive function such as tests to assess general mental status, executive function, attention and general naming ability. All neuropsychological tests are administered by a trained research assistant during a 60-minute session. As the three neuropsychological assessments in this study occur within a time period of 8 weeks, different versions of the neuropsychological tests are used to minimize test specific practice effects. Breaks are provided to the subject as needed.
# (§2) As described above, the drug treatment period is the two weeks preceding Visit 1 or 2 (with the two week period preceding the other Visit being the placebo phase). For the subjects receiving the drug treatment, half a scored 250 mg tablet of levetiracetam is used to achieve a dose of […], which is approximately 3.6 mg/kg/day (assuming an average adult human weight of 70 kg).
# aMCI subjects [3] = experiment: fMRI activity of medial temporal lobe subregions during the explicit 3-alternative forced choice task; format: in vivo, human; conditions: levetiracetam 125 mg twice a day for two weeks vs placebo
# Experimental: as §1, §2
# Imaging data are obtained through high-resolution methods developed in the Stark laboratory. […]
# Group data are analyzed using a two-way Analysis of Variance (ANOVA) with trial types and group as fixed factors, and subject as a random factor nested within group. […]
# [4] = biological target: synaptic vesicle protein 2A (SV2A) (Homo sapiens, UniProt Q7L0J3); conditions: Noyer et al. 1995; Fuks et al. 2003; Lynch et al. 2004; Gillard et al. 2006; cited from earlier work
# Sequence of synaptic vesicle protein 2A (SV2A) (Q7L0J3 whole entry, species assumed): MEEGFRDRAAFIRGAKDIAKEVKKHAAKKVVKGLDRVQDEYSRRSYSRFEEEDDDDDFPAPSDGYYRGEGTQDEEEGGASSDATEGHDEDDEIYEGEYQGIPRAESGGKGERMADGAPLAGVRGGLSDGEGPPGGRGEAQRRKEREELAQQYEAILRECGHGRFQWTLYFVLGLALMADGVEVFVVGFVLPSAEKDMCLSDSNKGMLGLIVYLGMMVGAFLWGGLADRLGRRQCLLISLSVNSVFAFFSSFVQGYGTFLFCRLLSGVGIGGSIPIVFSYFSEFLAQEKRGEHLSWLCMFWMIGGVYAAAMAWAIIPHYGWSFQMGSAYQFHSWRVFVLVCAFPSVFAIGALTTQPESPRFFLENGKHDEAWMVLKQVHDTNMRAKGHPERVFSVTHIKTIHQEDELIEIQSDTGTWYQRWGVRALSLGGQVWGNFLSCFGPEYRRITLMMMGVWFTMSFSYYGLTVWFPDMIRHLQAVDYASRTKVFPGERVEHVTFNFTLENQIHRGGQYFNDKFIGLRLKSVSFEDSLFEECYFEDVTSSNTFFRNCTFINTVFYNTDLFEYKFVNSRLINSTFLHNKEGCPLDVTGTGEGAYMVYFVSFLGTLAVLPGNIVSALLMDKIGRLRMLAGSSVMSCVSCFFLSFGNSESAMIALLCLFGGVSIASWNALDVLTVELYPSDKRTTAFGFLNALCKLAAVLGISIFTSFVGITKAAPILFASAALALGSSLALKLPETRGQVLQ
structure (smiles),measurement,setting,value
"CC[C@@H](C(N)=O)N1CCCC1=O [levetiracetam, (2S)-2-(2-oxopyrrolidin-1-yl) butanamide]",absorption,[1]; after oral administration,rapidly and almost completely absorbed
same,plasma half-life,[1]; expected in elderly due to decreased renal function,9 to 10 h
same,time of peak plasma concentrations,[1]; following oral administration,about 1 hour
same,plasma half-life,[1]; in vivo,approximately 7±1 hour
same,time to steady state,[1]; multiple twice-daily dosing,2 days
same,"bioavailability, effect of food",[1]; oral,not affected by food
same,performance in Benton Visual Retention Test,aMCI subjects [2],fail to rescue performance
same,performance in Buschke Selective Reminding Test—Delayed Recall,aMCI subjects [2],fail to rescue performance
same,performance in Verbal Paired Associates Test—Delayed Recall,aMCI subjects [2],fail to rescue performance
same,performance in Verbal Paired Associates Test—Recognition,aMCI subjects [2],fail to rescue performance
same,entorhinal cortex (EC) activity during memory judgments,aMCI subjects [3],increases EC activity
same,"DG/CA3 activity during lure stimuli correctly identified as ""similar""",aMCI subjects [3]; p=0.037,reduces DG/CA3 hyper-activity
same,binding to SV2A,[4],binds to a specific site in the CNS: the synaptic vesicle protein 2A (SV2A)
